Reference: ChEMBL document CHEMBL1201862, “PubChem BioAssay data set” (2004)
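How tested: cells in 96-well plates exposed to compound for 48 hours at five concentrations. Here, GI50 denotes the concentration required for 50% inhibition of growth.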 Activity calls are given as the source filed them. Cut-off read from the data, not from the text of the source: active = GI50 up to about 1.1 µM and inactive = higher.

Assays:
Test in all cases: NCI tumour cell line growth inhibition, 48 h
CCRF-CEM = system: CCRF-CEM
HCT-116 = system: HCT-116
HOP-62 = system: HOP-62
K562 = system: K562
LOX IMVI = system: LOX IMVI
Malme-3M = system: Malme-3M
SF-539 = system: SF-539
SK-MEL-28 = system: SK-MEL-28
SK-MEL-2 = system: SK-MEL-2
TK-10 = system: TK-10
UACC-62 = system: UACC-62
A498 = system: A498
HCT-15 = system: HCT-15
M14 = system: M14
OVCAR-4 = system: OVCAR-4
OVCAR-5 = system: OVCAR-5
UO-31 = system: UO-31

Row | SMILES | GI50 (CCRF-CEM) | GI50 (HCT-116) | GI50 (HOP-62) | GI50 (K562) | GI50 (LOX IMVI) | GI50 (Malme-3M) | GI50 (SF-539) | GI50 (SK-MEL-28) | GI50 (SK-MEL-2) | GI50 (TK-10) | GI50 (UACC-62) | GI50 (A498) | GI50 (HCT-15) [µM] | GI50 (M14) | GI50 (OVCAR-4) | GI50 (OVCAR-5) | GI50 (UO-31)
1 | O=C1CCC2(O)c3ccccc3C2Cc2ccccc21 (stereo not drawn) | > 100 µM (inactive) | > 100 µM (inactive) | > 100 µM (inactive) | > 100 µM (inactive) | > 100 µM (inactive) | > 100 µM (inactive) | > 100 µM (inactive) | > 100 µM (inactive) | > 100 µM (inactive) | > 100 µM (inactive) | > 100 µM (inactive) | – | – | – | – | – | –
2 | CCCCCCCCCCCCC(CC)CCCCC(=O)O (stereo not drawn) | 22.6 µM (inactive) | > 53.1 µM (inactive) | > 100 µM (inactive) | 40.6 µM (inactive) | > 65.5 µM (inactive) | > 100 µM (inactive) | > 44.6 µM (inactive) | > 100 µM (inactive) | > 100 µM (inactive) | > 100 µM (inactive) | > 100 µM (inactive) | > 100 µM (inactive) | > 100 | > 100 µM (inactive) | > 100 µM (inactive) | > 100 µM (inactive) | > 100 µM (inactive)
3 | COC(=O)CCCCCOS(=O)(=O)c1ccc(C)cc1 | > 100 µM (inactive) | > 100 µM (inactive) | – | > 100 µM (inactive) | > 100 µM (inactive) | > 100 µM (inactive) | > 100 µM (inactive) | > 100 µM (inactive) | > 100 µM (inactive) | > 100 µM (inactive) | > 100 µM (inactive) | > 100 µM (inactive) | > 100 | > 100 µM (inactive) | – | > 100 µM (inactive) | > 100 µM (inactive)
4 | COc1cc2c(c(OC)c1OC)-c1ccc(SC)c(=O)cc1[C@@H](NCc1cccc(C#N)c1)CC2 | 0.0229 µM (active) | 0.0173 µM (active) | 0.0334 µM (active) | 0.0361 µM (active) | 0.0184 µM (active) | 0.0232 µM (active) | 0.014 µM (active) | 0.0221 µM (active) | 0.0304 µM (active) | 0.0841 µM (active) | 0.00668 µM (active) | 0.0161 µM (active) | 0.0239 | 0.0188 µM (active) | 0.0075 µM (active) | 0.037 µM (active) | 0.308 µM (active)
5 | O=C(/C=C\c1cccc2ccccc12)c1ccc(Br)cc1 | 20.9 µM (inactive) | 16.7 µM (inactive) | > 100 µM (inactive) | 18.1 µM (inactive) | – | 31.3 µM (inactive) | 22.3 µM (inactive) | 12.1 µM (inactive) | – | 51.3 µM (inactive) | 15.2 µM (inactive) | > 100 µM (inactive) | 17.7 | 18.1 µM (inactive) | 16.4 µM (inactive) | 18 µM (inactive) | 19.1 µM (inactive)
6 | N/N=C(/C(=O)Nc1cccc(Cl)c1)C(C(=O)c1ccc(O)cc1O)C1OC(=O)c2ccccc21 (stereo not drawn) | 35.1 µM (inactive) | > 100 µM (inactive) | > 100 µM (inactive) | > 100 µM (inactive) | 87.7 µM (inactive) | > 100 µM (inactive) | > 100 µM (inactive) | > 100 µM (inactive) | > 100 µM (inactive) | > 100 µM (inactive) | 52.8 µM (inactive) | 25.5 µM (inactive) | > 100 | > 100 µM (inactive) | > 100 µM (inactive) | > 100 µM (inactive) | > 100 µM (inactive)
7 | CCOC(=O)c1nc(-c2ccccc2)oc1OCC | > 100 µM (inactive) | > 100 µM (inactive) | > 100 µM (inactive) | 74.1 µM (inactive) | 36.8 µM (inactive) | – | > 100 µM (inactive) | > 100 µM (inactive) | – | > 100 µM (inactive) | > 100 µM (inactive) | – | – | > 100 µM (inactive) | > 100 µM (inactive) | – | –
8 | COc1ccc(C(=C[N+](=O)[O-])c2ccc(OC)cc2)cc1 | 10.1 µM (inactive) | 8.05 µM (inactive) | 13.3 µM (inactive) | 3.69 µM (inactive) | 9.44 µM (inactive) | 13.3 µM (inactive) | 10.9 µM (inactive) | 16.2 µM (inactive) | 6.14 µM (inactive) | 25.4 µM (inactive) | 9.55 µM (inactive) | 8.2 µM (inactive) | 8.05 | 11.9 µM (inactive) | 34.4 µM (inactive) | 38.8 µM (inactive) | 17.7 µM (inactive)
9 | CCOC(=O)C1Cc2ccc3c4c(ccc(c24)C1)CC(C(=O)OCC)C3 | > 100 µM (inactive) | > 100 µM (inactive) | > 100 µM (inactive) | > 100 µM (inactive) | > 100 µM (inactive) | > 100 µM (inactive) | > 100 µM (inactive) | > 100 µM (inactive) | > 100 µM (inactive) | > 100 µM (inactive) | > 100 µM (inactive) | > 100 µM (inactive) | > 100 | > 100 µM (inactive) | – | > 100 µM (inactive) | > 100 µM (inactive)
10 | CCOC(=O)C1=C(Nc2ccccc2)SC/C1=N\NC(=O)Cc1ccccc1 | > 100 µM (inactive) | > 100 µM (inactive) | > 100 µM (inactive) | > 100 µM (inactive) | > 100 µM (inactive) | > 100 µM (inactive) | > 100 µM (inactive) | > 100 µM (inactive) | > 100 µM (inactive) | > 100 µM (inactive) | > 100 µM (inactive) | > 100 µM (inactive) | > 100 | > 100 µM (inactive) | > 100 µM (inactive) | > 100 µM (inactive) | > 100 µM (inactive)
11 | CCOC(=O)NC(=O)c1cn(CC(=O)NCC(=O)NCC(=O)NCCCN2CCN(CCCNC(=O)CNC(=O)CNC(=O)Cn3cc(C(=O)NC(=O)OCC)c(=O)[nH]c3=O)CC2)c(=O)[nH]c1=O | > 100 µM (inactive) | > 100 µM (inactive) | > 100 µM (inactive) | > 100 µM (inactive) | > 100 µM (inactive) | > 100 µM (inactive) | > 100 µM (inactive) | > 100 µM (inactive) | > 100 µM (inactive) | > 100 µM (inactive) | > 100 µM (inactive) | > 100 µM (inactive) | > 100 | > 100 µM (inactive) | – | > 100 µM (inactive) | > 100 µM (inactive)
12 | COc1cc2c(cc1OC)C1(c3ccccc3)ON=C(c3ccccc3)N1CS2 (stereo not drawn) | 39.3 µM (inactive) | 28.7 µM (inactive) | > 100 µM (inactive) | 52.7 µM (inactive) | > 100 µM (inactive) | > 100 µM (inactive) | > 100 µM (inactive) | > 100 µM (inactive) | > 100 µM (inactive) | > 100 µM (inactive) | 45.8 µM (inactive) | > 100 µM (inactive) | > 100 | 46 µM (inactive) | > 100 µM (inactive) | > 100 µM (inactive) | > 100 µM (inactive)
13 | CC1=C(SC#N)S(=O)(=O)N(c2ccccc2)C(C)=C1SC#N | 17.5 µM (inactive) | 3.27 µM (inactive) | > 10 µM (inactive) | 21 µM (inactive) | 12.9 µM (inactive) | > 100 µM (inactive) | 43.3 µM (inactive) | 61.9 µM (inactive) | 26.7 µM (inactive) | > 100 µM (inactive) | 30.1 µM (inactive) | 22.6 µM (inactive) | 46 | > 10 µM (inactive) | 33.3 µM (inactive) | 39.4 µM (inactive) | 24.4 µM (inactive)
14 | O=C(Nc1ccc(Sc2ccc(/N=N/c3c(O)c(S(=O)(=O)O)cc4cc(S(=O)(=O)O)ccc34)cc2)cc1)c1ccc(/N=N/c2c(O)ccc3c(S(=O)(=O)O)cc(S(=O)(=O)O)cc23)cc1 | 24.7 µM (inactive) | 49.3 µM (inactive) | 87.3 µM (inactive) | 10.1 µM (inactive) | 15.5 µM (inactive) | 24.9 µM (inactive) | 46.9 µM (inactive) | 48.1 µM (inactive) | 27.9 µM (inactive) | 60.8 µM (inactive) | 16.9 µM (inactive) | 26 µM (inactive) | 27.5 | 21.7 µM (inactive) | 33.8 µM (inactive) | 33.4 µM (inactive) | 41.2 µM (inactive)
15 | O=C(NC12CC3CC(CC(C3)C1)C2)C(=O)c1c[nH]c2ccccc12 | 16.4 µM (inactive) | 14.7 µM (inactive) | 19.1 µM (inactive) | 5.77 µM (inactive) | 13.1 µM (inactive) | 15 µM (inactive) | 13.6 µM (inactive) | 16.3 µM (inactive) | 17.9 µM (inactive) | 27 µM (inactive) | 13.4 µM (inactive) | – | 12.1 | 14 µM (inactive) | 16.3 µM (inactive) | 17.9 µM (inactive) | 20 µM (inactive)
16 | CCCCOP1(=O)CC(C)=C(Cl)C(C)(OC)C1 (stereo not drawn) | 28.4 µM (inactive) | 61.4 µM (inactive) | > 100 µM (inactive) | 29.6 µM (inactive) | > 100 µM (inactive) | > 100 µM (inactive) | > 100 µM (inactive) | > 100 µM (inactive) | 41 µM (inactive) | > 100 µM (inactive) | > 100 µM (inactive) | – | > 100 | > 100 µM (inactive) | > 100 µM (inactive) | – | > 100 µM (inactive)
17 | COc1ccc2c(=O)c([Se]c3coc4cc(OC)ccc4c3=O)coc2c1 | 46.7 µM (inactive) | 19.8 µM (inactive) | > 100 µM (inactive) | > 100 µM (inactive) | > 100 µM (inactive) | 34.3 µM (inactive) | 69 µM (inactive) | 52.1 µM (inactive) | > 100 µM (inactive) | > 100 µM (inactive) | > 100 µM (inactive) | 57.3 µM (inactive) | 50.9 | 18.3 µM (inactive) | 44.6 µM (inactive) | > 100 µM (inactive) | 57.4 µM (inactive)
